For the assay, the target named is T1, human 4lg B7-H3 (Homo sapiens, UniProt Q5ZPR3).
T1 sequence (Q5ZPR3 29-534): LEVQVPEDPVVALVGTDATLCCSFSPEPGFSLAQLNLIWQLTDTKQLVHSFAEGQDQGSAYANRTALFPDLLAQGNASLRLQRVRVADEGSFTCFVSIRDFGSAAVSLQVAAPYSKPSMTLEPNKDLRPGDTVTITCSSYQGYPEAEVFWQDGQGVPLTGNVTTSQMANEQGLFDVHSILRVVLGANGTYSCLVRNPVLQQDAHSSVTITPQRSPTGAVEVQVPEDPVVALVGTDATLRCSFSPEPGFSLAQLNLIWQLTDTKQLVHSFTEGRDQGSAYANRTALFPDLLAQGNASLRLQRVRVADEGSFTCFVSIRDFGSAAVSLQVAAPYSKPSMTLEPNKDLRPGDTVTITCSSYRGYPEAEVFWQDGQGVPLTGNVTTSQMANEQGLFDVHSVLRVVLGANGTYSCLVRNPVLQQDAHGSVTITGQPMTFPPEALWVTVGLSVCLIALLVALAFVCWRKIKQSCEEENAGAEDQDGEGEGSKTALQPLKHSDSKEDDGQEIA
Description: Affinity determination by surface plasmon resonance (SPR) to 4Ig B7-H3. As to conditions: 4Ig B7-H3.

Where [1] appears, read: SPR KD—37° C., 37° C. flow cell temperature.
Where [2] appears, read: SPR KD—25° C., 25° C. flow cell temperature.

Structures are written as SMILES. Starred links: 1 amine or outer side, 2 acyl side, 3 side chain; linkers in the order of their positions; H or OH if unused. Positions of bridges follow the written chain, without caps; N, C: chain ends. Non-standard residues stand in square brackets, D forms with d. Residues, ends and D or L forms follow the SMILES beside them. Groups on a side chain read outwards from the residue. *: point of attachment. Ala(piperidin-4-yl) = O=C([C@H](CC1CCN([*:3])CC1)N[*:1])[*:2]; DOTA = O=C(O)CN1CCN(CC(=O)O)CCN(CC(=O)*)CCN(CC(=O)O)CC1; Trp(4-Cl) = N[C@@H](Cc1c[nH]c2cccc(Cl)c12)C(=O)O; Phe(4-COOH) = N[C@@H](Cc1ccc(C(=O)O)cc1)C(=O)O; Trp(5-F) = N[C@@H](Cc1c[nH]c2ccc(F)cc12)C(=O)O; X1 = C[C@@H](c1ccccc1)[C@H](N[*:1])C(=O)[*:2]; Trp(2-Me) = Cc1[nH]c2ccccc2c1C[C@H](N)C(=O)O; Pro(cis-4-F) = O=C(O)[C@@H]1C[C@H](F)CN1; Phe(4-F) = N[C@@H](Cc1ccc(F)cc1)C(=O)O; 1Nal = N[C@@H](Cc1cccc2ccccc12)C(=O)O; Ala(4-THP) = N[C@@H](CC1CCOCC1)C(=O)O; N(CH2CH2COOH)Gly = O=C(O)CCNCC(=O)O; αMeY = C[C@](N)(Cc1ccc(O)cc1)C(=O)O; Val(3-OH) = CC(C)(O)[C@H](N)C(=O)O; 4Pal = N[C@@H](Cc1ccncc1)C(=O)O; Tle = CC(C)(C)[C@H](N)C(=O)O; hLeu = CC(C)CC[C@H](N)C(=O)O; Nle = CCCC[C@H](N)C(=O)O; Nva = CCC[C@H](N)C(=O)O; AEA = NCCOCC(=O)O

Under setting [1], `CCCC[C@H](NC(C)=O)C(=O)N[C@@H](Cc1ccc(O)cc1)C(=O)N[C@H]1CSSC[C@@H](C(=O)N[C@@H](Cc2c[nH]c3ccccc23)C(=O)N[C@@H](Cc2ccccc2)C(N)=O)NC(=O)[C@H](Cc2ccc(O)cc2)NC(=O)[C@H](C(C)C)NC(=O)[C@H](CC(=O)O)NC(=O)[C@H](Cc2ccc(O)cc2)NC(=O)[C@H](CCCCN)NC(=O)CN(CCC(=O)O)C(=O)[C@H](C(C)C)NC1=O` [compound 53, Ac-Nle-Y-C-V-N(CH2)2COOHGly-K-Y-D-V-Y-C-W-F-CONH2] (Ac-[Nle]YCV[N(CH2CH2COOH)Gly]KYDVYCWF-NH2; disulfide 3-11) yielded a Kd of 100 to 300 nM. In the case of `CC(=O)N[C@@H](CCC(C)C)C(=O)N[C@@H](Cc1ccc(O)cc1)C(=O)N[C@H]1CSSC[C@@H](C(=O)N[C@@H](Cc2c[nH]c3ccc(F)cc23)C(=O)N[C@@H](Cc2ccccc2)C(=O)N2CCC[C@H]2C(=O)O)NC(=O)[C@H](Cc2ccc(O)cc2)NC(=O)[C@H](C(C)C)NC(=O)[C@H](CC(=O)O)NC(=O)[C@H](Cc2ccc(C(=O)O)cc2)NC(=O)[C@H](CCCCNC(=O)CN2CCN(CC(=O)O)CCN(CC(=O)O)CCN(CC(=O)O)CC2)NC(=O)CNC(=O)[C@H](C(C)C)NC1=O` [compound 290, Ac-hLeu-Y-C-V-G-Lys(DOTA)-4COOHPhe-D-V-Y-C-5FW-F-Pro-COOH] (Ac-[hLeu]YCVGK(DOTA)[Phe(4-COOH)]DVYC[Trp(5-F)]FP-OH; disulfide 3-11), the Kd under setting [2] fell in the range of 100 to 300 nM. Regarding `CC(=O)N[C@@H](CCC(C)C)C(=O)N[C@@H](Cc1ccc(O)cc1)C(=O)N[C@H]1CSSC[C@@H](C(=O)N[C@@H](Cc2c[nH]c3cccc(Cl)c23)C(=O)N[C@@H](Cc2ccccc2)C(=O)N[C@H](C(=O)N[C@H](CCCCNC(=O)CN2CCN(CC(=O)O)CCN(CC(=O)O)CCN(CC(=O)O)CC2)C(=O)O)C(C)(C)O)NC(=O)[C@H](Cc2ccc(O)cc2)NC(=O)[C@H](C(C)C)NC(=O)[C@H](CC(=O)O)NC(=O)[C@H](CC2CCOCC2)NC(=O)[C@H](CC2CCNCC2)NC(=O)CNC(=O)[C@H](C(C)(C)C)NC1=O` [compound 472, Ac-hLeu-Y-C-Tbg-G-PipAla-ThpA-D-V-Y-C-4ClW-F-hydroxyVal-dLys(DOTA)-COOH] (Ac-[hLeu]YC[Tle]G[Ala(piperidin-4-yl)][Ala(4-THP)]DVYC[Trp(4-Cl)]F[Val(3-OH)][dK](DOTA)-OH; disulfide 3-11), the Kd under setting [1] lay within 1 to 10 nM. Consider `CC(=O)N[C@@H](CCC(C)C)C(=O)N[C@@H](Cc1ccc(O)cc1)C(=O)N[C@H]1CSSC[C@@H](C(=O)N[C@@H](Cc2c[nH]c3ccc(F)cc23)C(=O)N[C@@H](Cc2ccccc2)C(=O)N[C@H](C(=O)N[C@H](CCCCNC(=O)CN2CCN(CC(=O)O)CCN(CC(=O)O)CCN(CC(=O)O)CC2)C(N)=O)[C@@H](C)O)NC(=O)[C@H](Cc2ccc(F)cc2)NC(=O)[C@H](C(C)C)NC(=O)[C@H](CC(=O)O)NC(=O)[C@H](Cc2ccc(O)cc2)NC(=O)[C@H](CCCCN)NC(=O)CNC(=O)[C@H](C(C)C)NC1=O` [compound 172, Ac-hLeu-Y-C-V-G-K-Y-D-V-4FPhe-C-5FW-F-Thr-dLys(DOTA)-CONH2] (Ac-[hLeu]YCVGKYDV[Phe(4-F)]C[Trp(5-F)]FT[dK](DOTA)-NH2; disulfide 3-11), for which the Kd under setting [2] is 1 to 10 nM. As to `CC(=O)N[C@@H](CCC(C)C)C(=O)N[C@@H](Cc1ccc(O)cc1)C(=O)N[C@H]1CSSC[C@@H](C(=O)N[C@@H](Cc2c[nH]c3ccc(F)cc23)C(=O)N[C@@H](Cc2ccccc2)C(=O)N[C@H](C(=O)O)C(C)(C)O)NC(=O)[C@H](Cc2ccc(O)cc2)NC(=O)[C@H](C(C)C)NC(=O)[C@H](CC(=O)O)NC(=O)[C@H](CC2CCOCC2)NC(=O)[C@H](CC2CCN(C(=O)CN3CCN(CC(=O)O)CCN(CC(=O)O)CCN(CC(=O)O)CC3)CC2)NC(=O)CNC(=O)[C@H](C(C)(C)C)NC1=O` [compound 342, Ac-hLeu-Y-C-Tbg-G-Pip(DOTA)Ala-ThpA-D-V-Y-C-5FW-F-hydroxyVal-COOH] (Ac-[hLeu]YC[Tle]G[Ala(piperidin-4-yl)](DOTA)[Ala(4-THP)]DVYC[Trp(5-F)]F[Val(3-OH)]-OH; disulfide 3-11), under setting [1], the Kd was 10 to 100 nM. Under setting [2], `CC(=O)N[C@@H](CCC(C)C)C(=O)N[C@@](C)(Cc1ccc(O)cc1)C(=O)N[C@H]1CSSC[C@@H](C(=O)N[C@@H](Cc2c[nH]c3ccc(F)cc23)C(=O)N[C@@H](Cc2ccccc2)C(=O)N[C@H](C(=O)N[C@H](CCCCNC(=O)CN2CCN(CC(=O)O)CCN(CC(=O)O)CCN(CC(=O)O)CC2)C(N)=O)[C@@H](C)O)NC(=O)[C@H](Cc2ccc(O)cc2)NC(=O)[C@H](C(C)C)NC(=O)[C@H](CC(=O)O)NC(=O)[C@H](Cc2ccc(O)cc2)NC(=O)[C@H](CCCCN)NC(=O)CNC(=O)[C@H](C(C)C)NC1=O` [compound 195, Ac-hLeu-aMeTyr-C-V-G-K-Y-D-V-Y-C-5FW-F-Thr-dLys(DOTA)-CONH2] (Ac-[hLeu][αMeY]CVGKYDVYC[Trp(5-F)]FT[dK](DOTA)-NH2; disulfide 3-11) showed a Kd of 10 to 100 nM. `CC(=O)N[C@@H](CCC(C)C)C(=O)N[C@@H](Cc1ccc(O)cc1)C(=O)N[C@H]1CSSC[C@@H](C(=O)N[C@@H](Cc2cccc3ccccc23)C(=O)N[C@@H](Cc2ccccc2)C(=O)N2C[C@@H](F)C[C@H]2C(=O)O)NC(=O)[C@H](Cc2ccc(O)cc2)NC(=O)[C@H](C(C)C)NC(=O)[C@H](CC(=O)O)NC(=O)[C@H](Cc2ccncc2)NC(=O)[C@H](CCCCNC(=O)CN2CCN(CC(=O)O)CCN(CC(=O)O)CCN(CC(=O)O)CC2)NC(=O)CNC(=O)[C@H](C(C)(C)C)NC1=O` [compound 263, Ac-hLeu-Y-C-Tbg-G-Lys(DOTA)-4PyA-D-V-Y-C-1Nal-F-cis4FPro-CONH2] (Ac-[hLeu]YC[Tle]GK(DOTA)[4Pal]DVYC[1Nal]F[Pro(cis-4-F)]-OH; disulfide 3-11) registered a Kd under setting [2] of 10 to 100 nM. With `CC(C)CC[C@H](NC(=O)COCCNC(=O)[C@H](CCC(=O)O)NC(=O)CN1CCN(CC(=O)O)CCN(CC(=O)O)CCN(CC(=O)O)CC1)C(=O)N[C@@H](Cc1ccc(O)cc1)C(=O)N[C@H]1CSSC[C@@H](C(=O)N[C@@H](Cc2c[nH]c3ccc(F)cc23)C(=O)N[C@@H](Cc2ccccc2)C(=O)N[C@H](C(N)=O)C(C)(C)O)NC(=O)[C@H](Cc2ccc(O)cc2)NC(=O)[C@H](C(C)C)NC(=O)[C@H](CC(=O)O)NC(=O)[C@H](CC2CCOCC2)NC(=O)[C@H](CCCCN)NC(=O)CNC(=O)[C@H](C(C)(C)C)NC1=O` [compound 392, DOTA-Glu-AEA-hLeu-Y-C-Tbg-G-K-ThpA-D-V-Y-C-5FW-F-hydroxyVal-CONH2] ({DOTA}-E[AEA][hLeu]YC[Tle]GK[Ala(4-THP)]DVYC[Trp(5-F)]F[Val(3-OH)]-NH2; disulfide 5-13), the Kd under setting [1] lay in the range of 1 to 10 nM. Same read-out and setting: in the case of `CC(=O)N[C@@H](CCC(C)C)C(=O)N[C@@H](Cc1ccc(O)cc1)C(=O)N[C@H]1CSSC[C@@H](C(=O)N[C@@H](Cc2c(C)[nH]c3ccccc23)C(=O)N[C@@H](Cc2ccccc2)C(=O)N[C@H](C(=O)N[C@H](CCCCNC(=O)CN2CCN(CC(=O)O)CCN(CC(=O)O)CCN(CC(=O)O)CC2)C(=O)O)C(C)(C)O)NC(=O)[C@H](Cc2ccc(O)cc2)NC(=O)[C@H](C(C)C)NC(=O)[C@H](CC(=O)O)NC(=O)[C@H](CC2CCOCC2)NC(=O)[C@H](CC2CCNCC2)NC(=O)CNC(=O)[C@H](C(C)(C)C)NC1=O` [compound 492, Ac-hLeu-Y-C-Tbg-G-PipAla-ThpA-D-V-Y-C-2MeW-F-hydroxyVal-dLys(DOTA)-COOH] (Ac-[hLeu]YC[Tle]G[Ala(piperidin-4-yl)][Ala(4-THP)]DVYC[Trp(2-Me)]F[Val(3-OH)][dK](DOTA)-OH; disulfide 3-11) it was < 1 nM. For the compound `CCC[C@@H]1NC(=O)[C@H](CC(=O)O)NC(=O)[C@H](Cc2ccc(O)cc2)NC(=O)[C@H](CCCCN)NC(=O)CNC(=O)[C@H](C(C)C)NC(=O)[C@@H](NC(=O)[C@H](Cc2ccc(O)cc2)NC(=O)[C@H](CCC(C)C)NC(C)=O)CSSC[C@@H](C(=O)N[C@@H](Cc2c[nH]c3ccc(F)cc23)C(=O)N[C@@H](Cc2ccccc2)C(=O)N[C@H](C(=O)N[C@H](CCCCNC(=O)CN2CCN(CC(=O)O)CCN(CC(=O)O)CCN(CC(=O)O)CC2)C(N)=O)[C@@H](C)O)NC(=O)[C@H](Cc2ccc(O)cc2)NC1=O` [compound 185, Ac-hLeu-Y-C-V-G-K-Y-D-Nva-Y-C-5FW-F-Thr-dLys(DOTA)-CONH2] (Ac-[hLeu]YCVGKYD[Nva]YC[Trp(5-F)]FT[dK](DOTA)-NH2; disulfide 3-11), under setting [2], the Kd lay in the range of 1 to 10 nM.

For the compound `CC(=O)N[C@@H](CCC(C)C)C(=O)N[C@@H](Cc1ccc(O)cc1)C(=O)N[C@H]1CSSC[C@@H](C(=O)N[C@@H](Cc2c[nH]c3ccc(F)cc23)C(=O)N[C@H](C(=O)N[C@H](C(=O)N[C@H](CCCCNC(=O)[C@H](CCC(=O)O)NC(=O)CN2CCN(CC(=O)O)CCN(CC(=O)O)CCN(CC(=O)O)CC2)C(=O)O)C(C)(C)O)[C@@H](C)c2ccccc2)NC(=O)[C@H](Cc2ccc(O)cc2)NC(=O)[C@H](C(C)C)NC(=O)[C@H](CC(=O)O)NC(=O)[C@H](CC2CCOCC2)NC(=O)[C@H](CC2CCNCC2)NC(=O)CNC(=O)[C@H](C(C)(C)C)NC1=O` [compound 498, Ac-hLeu-Y-C-Tbg-G-PipAla-ThpA-D-V-Y-C-5FW-[(2S, 3S)beta-Me-Phe]-hydroxyVal-dLys(Glu-DOTA)-COOH] (Ac-[hLeu]YC[Tle]G[Ala(piperidin-4-yl)][Ala(4-THP)]DVYC[Trp(5-F)][X1][Val(3-OH)][dK]([Glu-DOTA])-OH; disulfide 3-11), under setting [1], the Kd was < 1 nM.

(Values after patent US20250296959A1, “B7-H3 TARGETING PEPTIDES AND CONSTRUCTS THEREOF” (Mariana Oncology Inc., priority 2024, published 2025).)
